Assay: Tested for activity against 5-hydroxytryptamine 1A receptor from bovine hippocampus

Compound: CCCN1CC[C@H]2c3c(cccc3OC)CC[C@H]21
- Ki: 186 nM

Compound: COc1cccc2c1C[C@H]1CCN(Cc3ccccc3)[C@@H]1C2
- Ki: 127 nM

Compound: COc1cccc2c1C[C@H]1CCN(CC3CC3)[C@@H]1C2
- Ki: 29 nM

Compound: C=CCN1C[C@H]2c3c(O)cccc3CC[C@H]21
- Ki: 0.3 nM

Compound: C=CCN1CC[C@@H]2c3ccccc3CC[C@H]21
- Ki: 11 nM

Compound: COc1cccc2c1C[C@H]1CCN(CC3CC3)[C@H]1C2
- Ki: 721 nM

Compound: COc1cccc2c1CC[C@@H]1[C@@H]2CCN1CC1CC1
- Ki: 66 nM

Compound: COc1cccc2c1C[C@H]1CCN[C@@H]1C2
- Ki: 29 nM

Compound: CCCN1CC[C@H]2c3ccccc3CC[C@H]21
- Ki: 37 nM

Compound: C=CCN1CC[C@H]2c3ccccc3CC[C@H]21
- Ki: 31 nM

Compound: CCCN1CC[C@@H]2c3ccccc3CC[C@H]21
- Ki: 44 nM

Compound: C=CCN1C[C@H]2c3c(cccc3OC)CC[C@H]21
- Ki: 5.9 nM
